Assay results taken from patent US20250032630A1, “B7H4 ANTIBODY-DRUG CONJUGATE AND USE THEREOF” (Duality Biologics (Suzhou) Co., Ltd., priority 2022, published 2025).
Read-outs that look alike come from different tables or passages of the source.

Assays:
[1] = system: human breast cancer cells MX-1 with high expression of B7H4; assay: In vitro proliferation inhibition (3D cell culture, CTG); type: cell-based; settings: 144 h, MX-1, 3D culture, 6 days
Protocol: (§1) The cells in the logarithmic growth phase were collected and a cell culture medium was added to resuspend the cells to prepare a single cell suspension. The single cell suspension was adjusted to a live cell density of […], and 3.5 mL of the cell suspension was mixed uniformly with 6.5 mL of 1% methylcellulose, avoiding bubbles as much as possible. 90 μL of the cell suspension was added to each well of 96-well plates, and the plates were cultured overnight in an incubator with 5% CO2 at 37° C. On the second day of the experiment, the test article was diluted with a complete medium to obtain a 10× solution, 10 μL of the test article solution (the highest final concentration of 100 nM, 9 concentrations, 3-fold dilution) was added to each well, the complete medium was used as a blank control, and 3 replicate wells were set up; and the plates were incubated in the incubator at 37° C. for another 6 days. After the incubation was completed, the cell culture plates were taken out and equilibrated to room temperature, and 100 μL of CTG detection reagent (Promega, Cat #: G7573) was added to each well. The plates were shaken and mixed uniformly, then left to stand in the dark for 10 minutes, and then placed at room temperature for 30 minutes to stabilize the luminescence signal. Luminescence was read using EnVision. Using GraphPad Prism software, a sigmoidal dose-response curve was plotted by using a non-linear regression model, and the IC50 value was calculated. Cell viability calculation

[2] = system: breast cancer cells JIMT-1 negative for B7H4 expression; assay: as above; type: cell-based; settings: Homo sapiens, 144 h, JIMT-1, 3D culture, 6 days
Protocol: as §1

[3] = system: endometrial carcinoma cells RL95-2 with low expression of B7H4; assay: as above; type: cell-based; settings: Homo sapiens, 144 h, RL95-2, 3D culture, 6 days
Protocol: as §1

[4] = system: NCI-N87 cells; assay: In vitro proliferation inhibition test of small molecule compound (CTG, 6 days), Example 3.2; type: cell-based; settings: Homo sapiens, read-out: Abs-IC50
Protocol: (§2) To detect the inhibitory activity of the drug compound against the proliferation of NCI-N87 and Colo205 tumor cells in vitro. Cells were treated with different concentrations of the compound in vitro, after 6 days of culture, the proliferation of the cells was detected using CTG (CellTiter-Glo® Luminescent Cell Viability Assay, Promega, Cat. No.: G7558) reagent, and the in vitro activity of the compound was evaluated according to the IC50 values. • 1. Cell culture: NCI-N87/Colo205 cells were cultured with 10% FBS RPMI-1640 medium. • 2. Preparation of cells: the NCI-N87/Colo205 cells in the logarithmic growth phase were taken and washed once with PBS, and 2-3 ml of trypsin was then added for digestion for 2-3 min. After the cells were completely digested, 10-15 ml of cell culture medium was added to elute the digested cells, the cells were centrifuged at 1000 rpm for 5 min, the supernatant was discarded, and then 10-20 ml of cell culture medium was added to resuspend the cells to prepare a single cell suspension. • 3. Cell plating: the NCI-N87/Colo205 single cell suspensions were mixed uniformly, and respectively adjusted to a live cell density of 6×10^4 cells/ml with a cell culture medium, and the density-adjusted cell suspensions were mixed uniformly, and added to 96-well cell culture plates at 50 ul/well. The culture plates were cultured in an incubator for 18 hours (37° C., 5% CO2). • 4. Preparation of compound: the compound was dissolved in DMSO to formulate a stock solution with an initial concentration of 10 mM.
(§3) A total of 8 concentrations of the small molecule compound were involved: 300, 100, 30, 10, 3, 1, 0.3, and 0.1 nM, respectively. • 5. Sample loading operation: different concentrations of the formulated samples to be tested were added to culture plates, with two replicate wells for each sample. The culture plates were incubated in an incubator for 6 days (37° C., 5% CO2). • 6. Color development operation: the 96-well cell culture plates were taken out, 50 ul of CTG reagent was added to each well, and the plates were incubated for 10 minutes at room temperature. • 7. Plate reading operation: the 96-well cell culture plates were taken out, and placed in a microplate reader, and the chemiluminescence was determined using the microplate reader.
(§4) Data analysis: the data was processed and analyzed using Microsoft Excel and Graphpad Prism 5.

[5] = system: Colo205 cells; assay: as above; type: cell-based; settings: Homo sapiens, COLO 205, 144 h, read-out: Abs-IC50
Protocol: as §2, §3, §4

[6] = biological target: T1, human B7H4 (human, UniProt Q7Z7D3 25-282); assay: cell-based or functional assay
T1 sequence (looked up): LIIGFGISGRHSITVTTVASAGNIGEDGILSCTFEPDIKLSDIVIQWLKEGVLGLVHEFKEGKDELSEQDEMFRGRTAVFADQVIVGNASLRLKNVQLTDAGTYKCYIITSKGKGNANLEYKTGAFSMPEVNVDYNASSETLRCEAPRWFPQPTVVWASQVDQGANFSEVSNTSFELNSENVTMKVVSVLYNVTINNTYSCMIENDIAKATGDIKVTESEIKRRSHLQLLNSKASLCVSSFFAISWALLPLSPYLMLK

[7] = highest concentration 100 nM, read-out: Max inh.

Molecule: CC[C@@]1(O)C(=O)OCc2c1cc1n(c2=O)Cc2c-1nc1cc(F)c(C)c3c1c2[C@@H](NC(=O)C[C@H](C)O)CC3 [P-III-30]
- IC50 [1]: 1.77 nM
- inhibition at up to 0.1 µM [1, 7]: 84.5%
- IC50 [2]: 24.3 nM
- inhibition at up to 0.1 µM [2, 7]: 71%
- IC50 [3]: 0.843 nM
- inhibition at up to 0.1 µM [3, 7]: 95.1%
- IC50 ([4]; 144 h, NCI-N87, 6 days, CTG): 6.5 nM
- IC50 ([5]; Colo205, 6 days, CTG): 103 nM

Molecule: CC[C@@]1(O)C(=O)OCc2c1cc1n(c2=O)Cc2c-1nc1cc(F)c(C)c3c1c2[C@@H](NC(=O)CCN)CC3 [Reference example 1, reference compound]
- IC50 ([4]; NCI-N87, 144 h): > 300 nM
- IC50 [5]: > 1000 nM

B1: antibody-drug conjugate DB1001-X1 (antibody, DAR 3.89, V domains shown)
VH: QVQLVESGGGVVQPGRSLRLSCAASGFTFRSFGMHWVRQAPGKGLEWVAVISYDASNEYYADSVKGRFIISRDNSKDTLYLQMNSLRAGDTAVYYCAKGGALRWYFAYWGQGTLVTVSS
VL: EIVMTQSPATLSVSPGERATLSCRASQSISSNLGWYQQKPGQAPRLLIYGASTRATGIPARFSGSGSGTEFTLTISSLQSEDFAVYYCQQYRSWPPLTFGGGTKVEIKR
modifications: linker-cytotoxin X1 (payload P-II-3) coupled after TCEP reduction of the antibody; drug-to-antibody ratio (DAR) of 3.89; conjugation residues not stated
- IC50 (nM), in vitro proliferation inhibition of MDA-MB-468 cells (CTG, 7 days) [6]: 30.3 nM
